Test results: patent US6737383B1, “Herbicidal oxadiazolidines” (priority 1999, dated 2004)

Experiments:
bedstraw = test: Test B pre/postemergence bedstraw; format: in vivo, Galium aparine
Procedure, shortened: (§1)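 Response is a visual 0-to-10 score relative to untreated plants, where 0 means no effect and 10 means complete control, taken twelve to sixteen days after application. Treatments went onto soil at planting and onto foliage of 1- to 4-leaf plants, using a surfactant-containing non-phytotoxic solvent.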

blackgrass = test: Test B pre/postemergence blackgrass; format: in vivo, Alopecurus myosuroides
Procedure, shortened: as §1

crabgrass = test: Test B pre/postemergence crabgrass; format: in vivo, Digitaria sanguinalis
Procedure, shortened: as §1

smallflower flatsedge = test: Test B flood test smallflower flatsedge; format: in vivo, Cyperus difformis
Procedure, shortened: (§2)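 Each value is a visual injury score relative to controls, with 10 meaning complete control and 0 no effect. Evaluation took place twelve to sixteen days after the 2-leaf-stage plants were treated and kept in the greenhouse.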

purple nutsedge = test: Test B pre/postemergence purple nutsedge; format: in vivo, Cyperus rotundus
Procedure, shortened: as §1

rape = test: Test B pre/postemergence rape; format: in vivo, Brassica napus
Procedure, shortened: as §1

wheat = test: Test B pre/postemergence wheat; format: in vivo, Triticum aestivum; settings: for Plant response rating, Wheat: Postemergence
Procedure, shortened: as §1

duck salad = test: Test B flood test duck salad; format: in vivo, Heteranthera limosa
Procedure, shortened: as §2

morningglory = test: Test B pre/postemergence morningglory; format: in vivo, Ipomoea hederacea
Procedure, shortened: as §1

surinam grass = test: Test B pre/postemergence surinam grass; format: in vivo, Brachiaria decumbens
Procedure, shortened: as §1

rice = test: Test B flood test rice; format: in vivo, Oryza sativa
Procedure, shortened: as §2

wild oat = test: Test B pre/postemergence wild oat; format: in vivo, Avena fatua; settings: for Plant response rating, Wild oats: Postemergence
Procedure, shortened: as §1

giant foxtail = test: Test B pre/postemergence giant foxtail; format: in vivo, Setaria faberii
Procedure, shortened: as §1

soybean = test: Test B pre/postemergence soybean; format: in vivo, Glycine max; settings: for Plant response rating, Soybean: Postemergence
Procedure, shortened: as §1

corn = test: Test B pre/postemergence corn; format: in vivo, Zea mays
Procedure, shortened: as §1

velvetleaf = test: Test B pre/postemergence velvetleaf; format: in vivo, Abutilon theophrasti; settings: for Plant response rating, Velvetleaf: Postemergence
Procedure, shortened: as §1

[1] = Postemergence, Rate 62 g/ha, scale of 0 to 10, 0 is no effect, 10 is complete control
[2] = Postemergence, Rate 125 g/ha, scale 0 to 10, 0 is no effect, 10 is complete control
[3] = Postemergence, Rate 500 g/ha, scale of 0 to 10 where 0 is no effect and 10 is complete control
[4] = Preemergence, Rate 62 g/ha, scale 0 to 10 (0 no effect, 10 complete control)
[5] = Preemergence, Rate 125 g/ha, scale 0 to 10, 0 is no effect, 10 is complete control
[6] = Preemergence, Rate 500 g/ha, scale of 0 to 10 where 0 is no effect and 10 is complete control
[7] = Rate 250 g/ha, Postemergence, scale of 0 to 10 where 0 is no effect and 10 is complete control
[8] = Rate 62 g/ha, flood test species, Pre-emergence, visual evaluation after twelve to sixteen days
[9] = Rate 125 g/ha, under heading Pre-emergence, flood test species, visual evaluation after twelve to sixteen days
[10] = Rate 250 g/ha, Pre-emergence (flood test species), scale 0 to 10, 0 is no effect, 10 is complete control
[11] = Rate 500 g/ha, Pre-emergence section of Table B, 0 to 10 scale (0 no effect, 10 complete control)
[12] = Rate 500 g/ha, scale of 0 to 10 where 0 is no effect and 10 is complete control
[13] = Rate 250 g/ha, scale of 0 to 10 where 0 is no effect and 10 is complete control

CC(C)N(C(=O)n1oc(=O)n(CCc2ccccc2)c1=O)c1ccccc1 [Compound 567]
3: Crabgrass plant response rating (crabgrass; [1]) | Giant foxtail plant response rating (giant foxtail; [4])
0: Bedstraw plant response rating (bedstraw; [1]) | Bedstraw plant response rating (bedstraw; [2]) | Plant response rating, Bedstraw (bedstraw; [3]) | Bedstraw plant response rating (bedstraw; [4]) | Bedstraw plant response rating (bedstraw; [5]) | Bedstraw plant response rating (0 to 10 scale) (bedstraw; Preemergence, Rate 250 g/ha) | Bedstraw plant response rating (bedstraw; [6]) | Plant response rating, Bedstraw (bedstraw; [7]) | Blackgrass plant response rating (blackgrass; [1]) | Blackgrass plant response rating (blackgrass; [2]) | Plant response rating, Blackgrass (blackgrass; [3]) | Blackgrass plant response rating (blackgrass; [4]) | Blackgrass plant response rating (blackgrass; [5]) | Blackgrass plant response rating (0 to 10 scale) (blackgrass; Preemergence, Rate 250 g/ha) | Plant response rating, Blackgrass (blackgrass; [7]) | Crabgrass plant response rating (crabgrass; [4]) | Plant response rating, S. Flatsedge (0 to 10 scale, 0 is no effect, 10 is complete control) (smallflower flatsedge; [8]) | S. Flatsedge plant response rating (0 to 10 scale, 0 is no effect, 10 is complete control) (smallflower flatsedge; [9]) | S. Flatsedge plant response rating (smallflower flatsedge; [10]) | S. Flatsedge plant response rating (smallflower flatsedge; [11]) | Plant response rating, Nutsedge (purple nutsedge; [3]) | Nutsedge plant response rating (purple nutsedge; [4]) | Nutsedge plant response rating (purple nutsedge; [5]) | Nutsedge plant response rating (0 to 10 scale) (purple nutsedge; Preemergence, Rate 250 g/ha) | Nutsedge plant response rating (purple nutsedge; [6]) | Rape plant response rating (rape; [1]) | Rape plant response rating (rape; [2]) | Plant response rating, Rape (rape; [3]) | Rape plant response rating (rape; [4]) | Rape plant response rating (rape; [5]) | Rape plant response rating (0 to 10 scale) (rape; Preemergence, Rate 250 g/ha) | Rape plant response rating (rape; [6]) | Plant response rating, Rape (rape; [7]) | Plant response rating, Wheat (wheat; [12]) | Wheat plant response rating (wheat; [4]) | Wheat plant response rating (wheat; [5]) | Wheat plant response rating (0 to 10 scale) (wheat; Preemergence, Rate 250 g/ha) | Wheat plant response rating (wheat; [6]) | Plant response rating, Wheat (wheat; [13]) | Plant response rating, Ducksalad (0 to 10 scale, 0 is no effect, 10 is complete control) (duck salad; [8]) | Ducksalad plant response rating (0 to 10 scale, 0 is no effect, 10 is complete control) (duck salad; [9]) | Ducksalad plant response rating (duck salad; [10]) | Ducksalad plant response rating (duck salad; [11]) | Morningglory plant response rating (morningglory; [1]) | Morningglory plant response rating (morningglory; [4]) | Morningglory plant response rating (morningglory; [5]) | Morningglory plant response rating (0 to 10 scale) (morningglory; Preemergence, Rate 250 g/ha) | Morningglory plant response rating (morningglory; [6]) | B. signalgrass plant response rating (surinam grass; [1]) | B. signalgrass plant response rating (surinam grass; [2]) | Plant response rating, B. signalgrass (surinam grass; [3]) | B. signalgrass plant response rating (surinam grass; [4]) | B. signalgrass plant response rating (surinam grass; [5]) | Plant response rating, B. signalgrass (surinam grass; [7]) | Plant response rating, Rice (0 to 10 scale, 0 is no effect, 10 is complete control) (rice; [8]) | Rice plant response rating (0 to 10 scale, 0 is no effect, 10 is complete control) (rice; [9]) | Rice plant response rating (rice; [10]) | Rice plant response rating (rice; [11]) | Plant response rating, Wild oats (wild oat; [12]) | Wild oats plant response rating (wild oat; [4]) | Wild oats plant response rating (wild oat; [5]) | Wild oats plant response rating (0 to 10 scale) (wild oat; Preemergence, Rate 250 g/ha) | Wild oats plant response rating (wild oat; [6]) | Plant response rating, Wild oats (wild oat; [13]) | Giant foxtail plant response rating (giant foxtail; [1]) | Giant foxtail plant response rating (giant foxtail; [2]) | Plant response rating, Giant foxtail (giant foxtail; [3]) | Plant response rating, Giant foxtail (giant foxtail; [7]) | Soybean plant response rating (soybean; [4]) | Soybean plant response rating (soybean; [5]) | Soybean plant response rating (0 to 10 scale) (soybean; Preemergence, Rate 250 g/ha) | Soybean plant response rating (soybean; [6]) | Corn plant response rating (corn; [1]) | Corn plant response rating (corn; [2]) | Plant response rating, Corn (corn; [3]) | Corn plant response rating (corn; [4]) | Corn plant response rating (corn; [5]) | Corn plant response rating (0 to 10 scale) (corn; Preemergence, Rate 250 g/ha) | Plant response rating, Corn (corn; [7]) | Velvetleaf plant response rating (velvetleaf; [4]) | Velvetleaf plant response rating (velvetleaf; [5]) | Velvetleaf plant response rating (0 to 10 scale) (velvetleaf; Preemergence, Rate 250 g/ha) | Velvetleaf plant response rating (velvetleaf; [6]) | Plant response rating, Velvetleaf (velvetleaf; [13])
8: Plant response rating, Crabgrass (crabgrass; [3])
10: Plant response rating, Morningglory (morningglory; [3]) | Giant foxtail plant response rating (0 to 10 scale) (giant foxtail; Preemergence, Rate 250 g/ha)
9: Crabgrass plant response rating (crabgrass; [5]) | Crabgrass plant response rating (0 to 10 scale) (crabgrass; Preemergence, Rate 250 g/ha) | Crabgrass plant response rating (crabgrass; [6]) | B. signalgrass plant response rating (surinam grass; [6]) | Giant foxtail plant response rating (giant foxtail; [5]) | Giant foxtail plant response rating (giant foxtail; [6])
2: B. signalgrass plant response rating (0 to 10 scale, 0 is no effect, 10 is complete control) (surinam grass; Preemergence, Rate 250 g/ha) | Plant response rating, Velvetleaf (velvetleaf; [12])
6: Plant response rating, Soybean (soybean; [12])
5: Corn plant response rating (corn; [6])
7: Blackgrass plant response rating (blackgrass; [6]) | Crabgrass plant response rating (crabgrass; [2]) | Plant response rating, Crabgrass (crabgrass; [7])
4: Nutsedge plant response rating (purple nutsedge; [1]) | Morningglory plant response rating (morningglory; [2]) | Plant response rating, Morningglory (morningglory; [7]) | Plant response rating, Soybean (soybean; [13])
